Experimental data reported in PubChem BioAssay AID602273 (Broad Institute, 2012).
The source made the active and inactive calls. The rule behind the calls is not given here.

tested on: not listed separately; experiment: rescue of alpha-synuclein yeast toxicity, dose response, S. cerevisiae, plate reader, cherry-pick (AID 602273); settings: S. cerevisiae alpha-synuclein toxicity rescue, OD600 growth, 24 h; at 26 µM (top of the series)

**Q.** For `CCCSc1nnc(Sc2nnnn2-c2ccccc2)s1`, which growth rescue activity is on record?
**A.** 4.13% (inactive)

**Q.** With `Cc1ccc(/C=C2\Oc3cc(OC(=O)N4CCOCC4)ccc3C2=O)cc1` as the molecule, how does the growth rescue activity read?
**A.** -7.43% (inactive)

**Q.** For `CC(=O)N1N=C(c2ccccc2)CC1c1ccccc1[N+](=O)[O-]` (centres undefined), which growth rescue activity is on record?
**A.** 2.51% (inactive)

**Q.** With `CN(Cc1ccccc1)C(=O)c1cc(-c2ccc(Br)cc2)on1` as the molecule, how does the growth rescue activity read?
**A.** -17.2% (inactive)

**Q.** For `COc1ccc(C(=O)n2nc(C)cc2Nc2ccccc2)cc1`, which growth rescue activity is on record?
**A.** 2.84% (inactive)

**Q.** With `O=C(O)C1CCCCC1C(=O)Nc1ccc2c(c1)CCC2` (centres undefined) as the molecule, how does the growth rescue activity read?
**A.** -2.7% (inactive)

**Q.** With `Cc1nc2ccccc2nc(C)c1=NOCc1ccccc1Cl` as the molecule, how does the growth rescue activity read?
**A.** 0.053% (inactive)

**Q.** Which growth rescue activity does the source give for `c1ccc2c(Nc3nnc(-c4ccncc4)s3)cccc2c1` here?
**A.** -9.03% (inactive)

**Q.** Which growth rescue activity does the source give for `O=C(CSc1nnc(-c2c[nH]c3ccccc23)n1-c1ccc(F)cc1)NCc1ccco1` here?
**A.** 0.096% (inactive)

**Q.** Which growth rescue activity does the source give for `CCN(CC)CCn1c2ccccc2c2nc3ccc([N+](=O)[O-])cc3cc21` here?
**A.** 0.822% (inactive)

**Q.** For `COC(=O)[C@@H](Cc1c[nH]c2ccccc12)NC(=O)c1ccc2c(c1)OCO2`, which growth rescue activity is on record?
**A.** 0.758% (inactive)

**Q.** Which growth rescue activity does the source give for `O=C(CSCc1ccc(Br)cc1)N1CCCC1` here?
**A.** 0.808% (inactive)

**Q.** For `CC1(C)CC(=O)C2=C(C1)OC(N)=C(C#N)C2C#Cc1ccccc1` (centres undefined), which growth rescue activity is on record?
**A.** 8.43% (inactive)

**Q.** For `CNc1nc(Nc2ccc(C)c(Cl)c2)nc(N)c1[N+](=O)[O-]`, which growth rescue activity is on record?
**A.** -8.67% (inactive)

**Q.** Which growth rescue activity does the source give for `Oc1[nH]c(N=C2N=c3ccccc3=N2)c2ccccc12` here?
**A.** -26.4% (inactive)

**Q.** For `O=C(OCc1csc(-c2ccccc2)n1)c1cccs1`, which growth rescue activity is on record?
**A.** 0.967% (inactive)

**Q.** Which growth rescue activity does the source give for `Cc1ccc(N2C(=O)NC(=O)/C(=C\C=C\c3ccco3)C2=O)cc1C` here?
**A.** 1.5% (inactive)

**Q.** With `CC(=O)Nc1cccc(NC(=O)CSc2ncc(C(=O)Nc3ccccc3)c(=O)n2C)c1` as the molecule, how does the growth rescue activity read?
**A.** -9.48% (inactive)

**Q.** With `Cn1c(CO)cnc1SCC(=O)c1ccc(Cl)cc1` as the molecule, how does the growth rescue activity read?
**A.** 4.95% (inactive)

**Q.** Which growth rescue activity does the source give for `CCOC(=O)Nc1ccc(C(=O)Oc2ccccc2)c(O)c1` here?
**A.** -4.86% (inactive)

**Q.** With `Cc1ccc2cccnc2c1NC(=S)NC(=O)c1ccccc1` as the molecule, how does the growth rescue activity read?
**A.** -4.6% (inactive)

**Q.** With `CCOc1cccc(/C=C/c2ccc3cccc(O)c3n2)c1OC` as the molecule, how does the growth rescue activity read?
**A.** -2.49% (inactive)

**Q.** Which growth rescue activity does the source give for `N#Cc1ccc(OCCN2CCc3ccccc3C2)cc1` here?
**A.** 4.6% (inactive)

**Q.** Which growth rescue activity does the source give for `CC(=O)c1cccc(N(CC(=O)Nc2ccc(F)cc2F)S(C)(=O)=O)c1` here?
**A.** 2.96% (inactive)

**Q.** Which growth rescue activity does the source give for `CC(C)CC(=O)Nc1ccc(N2CCOCC2)cc1` here?
**A.** 3.83% (inactive)

**Q.** With `C=CCN1C(=O)C(Cc2ccc(OCC)cc2)SC1=Nc1ccc(C(=O)O)cc1` (centres undefined) as the molecule, how does the growth rescue activity read?
**A.** 18.5% (inactive)

**Q.** Which growth rescue activity does the source give for `Cn1cc([N+](=O)[O-])c(C(=O)Nc2ccc(-c3nc4ccccc4[nH]3)cc2)n1` here?
**A.** -1.83% (inactive)

tested on: S. cerevisiae alpha-synuclein toxicity rescue, OD600 growth, 24 h; experiment: as above; settings: not given

**Q.** With `O=[N+]([O-])c1cccc(-c2ncc3ccccn23)c1` as the molecule, how does the AC40 read?
**A.** > 26 µM (inactive)

**Q.** With `CN1CCN(Cc2c(O)ccc3cc(Br)ccc23)CC1` as the molecule, how does the AC40 read?
**A.** > 26 µM (inactive)

**Q.** With `CSc1sc(C(=O)Nc2ccc(F)cc2F)c2c1C=CCC2` as the molecule, how does the AC40 read?
**A.** > 26 µM (inactive)

**Q.** Which AC40 does the source give for `O=c1[nH]c2ccccc2c2cn(-c3ccccc3)nc12` here?
**A.** 23.4 µM

**Q.** With `Cc1cc(-c2nc3ncccc3o2)ccc1NC(=S)NC(=O)C(C)C` as the molecule, how does the AC40 read?
**A.** > 26 µM (inactive)

**Q.** For `O=c1c2sccc2nc(SCc2ccc([N+](=O)[O-])cc2)n1Cc1ccccn1`, which AC40 is on record?
**A.** > 26 µM (inactive)

**Q.** With `Cc1ccccc1CSc1nsc(N)n1` as the molecule, how does the AC40 read?
**A.** 14.5 µM

**Q.** For `O=C1C=C(c2ccccc2)CC(/C=C/c2ccccc2)C1` (centres undefined), which AC40 is on record?
**A.** > 12 µM (inactive)

**Q.** With `CC(C)c1ccc(C2NC(=O)c3ccccc3O2)cc1` (centres undefined) as the molecule, how does the AC40 read?
**A.** 12.1 µM

**Q.** For `Clc1ccc(SCc2csc(N3CCOCC3)n2)cc1`, which AC40 is on record?
**A.** > 26 µM (inactive)

**Q.** For `COc1cccc(CNc2ccc(Br)cn2)c1O`, which AC40 is on record?
**A.** > 26 µM (inactive)

**Q.** With `O=C(CSc1nnc(-c2c[nH]c3ccccc23)o1)c1ccccc1` as the molecule, how does the AC40 read?
**A.** > 26 µM (inactive)

**Q.** For `Cc1ccc2oc(C(=O)N3CCC(O)(c4cccc(C(F)(F)F)c4)CC3)c(C)c2c1`, which AC40 is on record?
**A.** > 26 µM (inactive)

**Q.** For `CCOC(=O)c1nnsc1Nc1ccc(C)c(C)c1`, which AC40 is on record?
**A.** > 26 µM (inactive)

**Q.** Which AC40 does the source give for `Fc1cc(NCc2ccccc2)nc(NCc2ccccc2)n1` here?
**A.** > 26 µM (inactive)

**Q.** For `COc1cccc(NC(=S)NC(=O)c2c(Cl)c(C)nn2C)c1`, which AC40 is on record?
**A.** > 26 µM (inactive)

**Q.** For `CC1(C)CC(=O)C=C(NC2=CC3OC(c4ccccc4)OCC3OC2=O)C1` (centres undefined), which AC40 is on record?
**A.** > 26 µM (inactive)
